Emax data for one molecule are collected here from patent publication US20170311605A1, “SYNERGISTIC BACILLUS THURINGIENSIS SUBSP. AIZAWAI AND FLUBENDIAMIDE MIXTURES FOR DIAMONDBACK MOTH, BEET ARMYWORM, SOYBEAN LOOPER, CORN EARWORM, AND SUGARCANE BORER CONTROL” (Valent BioSciences LLC, priority 2016, published 2017).

Where two headings read alike, the source gives them in different places.

Assay [1] has as its system southwestern corn borer larvae. Briefly: leaf dip test, southwestern corn borer larvae. Format: in vivo. Conditions: foliar, Bta 2.7 ppm, flubendiamide 0.39 ppm, mixture 2.7 ppm + 0.39 ppm, read-out: % Efficacy.
The subject of assay [2] is sugarcane borer larvae. Briefly: leaf dip test, sugarcane borer larvae. Format: in vivo. To be noted: Diatraea saccharalis, foliar, Bta 27 ppm, flubendiamide 2.15 ppm, mixture 27 ppm + 2.15 ppm, read-out: % Efficacy. On the procedure: (§1) The following examples illustrate the synergy of Bacillus thuringiensis subsp. aizawai and flubendiamide when controlling diamondback moth, beet armyworm, soybean looper, corn earworm, and sugarcane borer. Xentari® was used as the source of Bacillus thuringiensis subsp. aizawai and Belt® was used as the source of flubendiamide. The present invention is not limited to the products or formulation types used herein. In each example below, the studies were conducted as follows.
(§2) For these tests, standardized laboratory leaf dip methods were used to inoculate plant material with treatment(s). Dry, treated leaves were placed into Petri dishes (100×25 mm) containing filter paper wetted with 500 μl of distilled H2O (“dH2O”). Each dish was then infested with between 5 and 10 larvae, dependent on species. Efficacy ratings were taken at specified intervals. Synergy ratings were calculated for each test.
(§3) % Cexp=A+B−(AB/100), where % Cexp is the expected efficacy and “in which A and B are the control levels given by the single [insecticides]. […] Adopting a conservative approach, Applicant determined synergy to be present at ratios of ≧1.15. […]

Assay [3] concerns soybean looper larvae. The assay is described as follows: leaf dip test, soybean looper larvae. Format: in vivo, Chrysodeixis includens. Conditions: foliar, Bta 27 ppm, flubendiamide 3.9 ppm, mixture 27 ppm + 3.9 ppm, read-out: % Efficacy. On the procedure:
as §1, §2, §3

The test system of assay [4] is beet armyworm larvae. Briefly: leaf dip test, beet armyworm larvae. Format: in vivo. Conditions: Spodoptera exigua, foliar, Bta 2.7 ppm, flubendiamide 0.49 ppm, mixture 2.7 ppm + 0.49 ppm, read-out: % Efficacy. Here is the method: as §1, §2, §3
Assay [5] concerns corn earworm larvae. Briefly: leaf dip test, corn earworm larvae. Format: in vivo. Conditions: Helicoverpa zea, foliar, Bta 27 ppm, flubendiamide 0.975 ppm, mixture 27 ppm + 0.975 ppm, read-out: % Efficacy. On the procedure: as §1, §2, §3
Assay [6] deals with cabbage looper larvae. Briefly: leaf dip test, cabbage looper larvae. Format: in vivo. Conditions: Trichoplusia ni, foliar, Bta 2.7 ppm, flubendiamide 0.49 ppm, mixture 2.7 ppm + 0.49 ppm, read-out: % Efficacy.
Assay [7] relates to diamondback moth larvae. The assay is described as follows: leaf dip test, diamondback moth larvae. Format: in vivo. Conditions: Plutella xylostella, foliar, Bta 2.7 ppm, flubendiamide 0.215 ppm, mixture 2.7 ppm + 0.215 ppm, read-out: % Efficacy. Here is the method:
as §1
For these tests, standardized laboratory leaf dip methods were used to inoculate plant material with treatment(s). Dry, treated leaves were placed into Petri dishes (100×25 mm) containing filter paper wetted with 500 μl of distilled H2O (“dH2O”). […] Synergy ratings were calculated for each test. […]
as §3
In order to determine synergy, rates below normal field rate ranges must be used. If normal field rate ranges are used, all of the larvae would die (combining a lethal or near lethal dose of Bacillus thuringiensis subsp. aizawai with a lethal dose of flubendiamide would most likely lead to larvae death) in every treatment and synergy would not be able to be determined. […]

As to `Cc1cc(C(F)(C(F)(F)F)C(F)(F)F)ccc1NC(=O)c1cccc(I)c1C(=O)NC(C)(C)CS(C)(=O)=O` [Flubendiamide, 3-iodo-N′-(2-mesyl-1,1-dimethylethyl)-N-{4-[1,2,2,2-tetrafluoro-1-(trifluoromethyl)ethyl]-o-tolyl}phthalamide], the Emax at 0.39 ppm was determined as 40% in assay [1] (24 h after treatment) and 49% in assay [1] (48 h after treatment). For the same molecule, the Emax at 2.15 ppm stood at 44% in assay [2] (24 h after treatment) and 68% in assay [2] (48 h after treatment). In addition, the Emax at 3.9 ppm was 3% in assay [3] (24 h after treatment) and 20% in assay [3] (48 h after treatment). Besides, the Emax at 0.49 ppm was 12% in assay [4] (24 h after treatment), 26% in assay [4] (48 h after treatment), 4% in assay [6] (24 h after treatment) and 21% in assay [6] (48 h after treatment). In addition, the Emax at 0.975 ppm in assay [5] (24 h after treatment) is 16%; in assay [5] (48 h after treatment) it was 29%. The Emax at 0.215 ppm was found to be 11% in assay [7] (24 h after treatment) and 25% in assay [7] (48 h after treatment).
